Toxic doses and inconclusive results are not listed.
System: L1210 leukemia ip in BDF1 mice, survival T/C
Assay: NCI In Vivo Anticancer Drug Screen. Data for tumor model L1210 Leukemia (intraperitoneal) in B6D2F1 (BDF1) mice
Conditions: endpoint: mean survival time, higher = longer survival
Outline: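 Read-out is survival time, reported as the treated-group measurement over the vehicle-control measurement.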

[1] = dose: 100.0 mg/kg/injection, schedule: Q01DX001 (ip), vehicle: saline
[2] = dose: 200.0 mg/kg/injection, schedule: Q01DX001 (ip), vehicle: saline
[3] = dose: 100.0 mg/kg/injection, schedule: Q04DX003 (ip), vehicle: acetone
[4] = dose: 100.0 mg/kg/injection, schedule: Q04DX003 (ip), vehicle: saline
[5] = dose: 200.0 mg/kg/injection, schedule: Q04DX003 (ip), vehicle: acetone
[6] = dose: 400.0 mg/kg/injection, schedule: Q04DX003 (ip), vehicle: saline
[7] = dose: 200.0 mg/kg/injection, schedule: Q04DX003 (ip), vehicle: saline

## Cc1cc2cc3c(=O)[nH]c(=O)[nH]c3nc2cc1C
[1]
  T/C: 93 % of control
[2]
  T/C: 102 % of control
dose: 400.0 mg/kg/injection, schedule: Q01DX001 (ip), vehicle: saline
  T/C: 91 % of control

## O=C(c1ccccc1)C(Nc1ccccn1)c1ccccc1 (centres undefined)
dose: 75.0 mg/kg/injection, schedule: Q01DX001 (ip), vehicle: carboxymethylcellulose (CMC)
  T/C: 96 % of control
dose: 150.0 mg/kg/injection, schedule: Q01DX001 (ip), vehicle: carboxymethylcellulose (CMC)
  T/C: 94 % of control
dose: 300.0 mg/kg/injection, schedule: Q01DX001 (ip), vehicle: carboxymethylcellulose (CMC)
  T/C: 94 % of control

## O=P(N1CCCCC1)(N1CC1)N1CC1
dose: 0.5 mg/kg/injection, schedule: Q01DX Z (ip), vehicle: saline
  T/C: 117 % of control
dose: 2.0 mg/kg/injection, schedule: Q01DX Z (ip), vehicle: saline
  T/C: 158 % of control
dose: 3.8 mg/kg/injection, schedule: Q01DX015 (ip), vehicle: saline
  T/C: 106 % of control
dose: 4.0 mg/kg/injection, schedule: Q01DX011 (ip), vehicle: saline
  T/C: 113 % of control
dose: 5.0 mg/kg/injection, schedule: Q01DX001 (ip), vehicle: saline
  T/C: 107 % of control
dose: 6.0 mg/kg/injection, schedule: Q01DX Z (ip), vehicle: saline
  T/C: 202 % of control
dose: 7.5 mg/kg/injection, schedule: Q01DX015 (ip), vehicle: saline
  T/C: 124 % of control
dose: 8.0 mg/kg/injection, schedule: Q01DX011 (ip), vehicle: saline
  T/C: 150 % of control
dose: 9.0 mg/kg/injection, schedule: Q01DX Z (ip), vehicle: saline
  T/C: 94 % of control
dose: 10.0 mg/kg/injection, schedule: Q01DX001 (ip), vehicle: saline
  T/C: 100 % of control
dose: 13.5 mg/kg/injection, schedule: Q01DX Z (ip), vehicle: saline
  T/C: 94 % of control
dose: 15.0 mg/kg/injection, schedule: Q01DX011 (ip), vehicle: saline
  T/C: 95 % of control
dose: 20.0 mg/kg/injection, schedule: Q01DX001 (ip), vehicle: saline
  T/C: 122 % of control
dose: 21.0 mg/kg/injection, schedule: Q01DX Z (ip), vehicle: saline
  T/C: 114 % of control
dose: 30.0 mg/kg/injection, schedule: Q01DX015 (ip), vehicle: saline
  T/C: 106 % of control
dose: 40.0 mg/kg/injection, schedule: Q01DX001 (ip), vehicle: saline
  T/C: 169 % of control

## COC(=O)N1C2C=CC(C2)N1C(=O)OC
dose: 50.0 mg/kg/injection, schedule: Q01DX009 (ip), vehicle: DMSO
  T/C: 96 % of control
dose: 100.0 mg/kg/injection, schedule: Q01DX009 (ip), vehicle: DMSO
  T/C: 93 % of control
dose: 100.0 mg/kg/injection, schedule: Q04DX003 (ip), vehicle: DMSO
  T/C: 97 % of control
dose: 200.0 mg/kg/injection, schedule: Q04DX003 (ip), vehicle: DMSO
  T/C: 95 % of control

## Clc1nc(Cl)nc(-c2cccn2-c2ccccc2)n1
dose: 6.25 mg/kg/injection, schedule: Q01DX009 (ip), vehicle: saline with Tween-80
  T/C: 92 % of control
[3]
  T/C: 101 % of control
[4]
  T/C: 101 % of control
[5]
  T/C: 86 % of control
[6]
  T/C: 93 % of control

## CC(=O)Nc1nc(/C=N/NC(N)=S)cc(=O)[nH]1
dose: 75.0 mg/kg/injection, schedule: Q01DX001 (ip), vehicle: other
  T/C: 100 % of control
dose: 150.0 mg/kg/injection, schedule: Q01DX001 (ip), vehicle: other
  T/C: 96 % of control
dose: 300.0 mg/kg/injection, schedule: Q01DX001 (ip), vehicle: other
  T/C: 105 % of control

## O=[N+]([O-])c1cc([N+](=O)[O-])c(NN(c2ccc(Cl)cc2)c2ccc(Cl)cc2)c([N+](=O)[O-])c1
dose: 25.0 mg/kg/injection, schedule: Q01DX009 (ip), vehicle: Klucel (hydroxypropylcellulose) (HPC)
  T/C: 96 % of control
dose: 50.0 mg/kg/injection, schedule: Q01DX009 (ip), vehicle: Klucel (hydroxypropylcellulose) (HPC)
  T/C: 105 % of control
dose: 100.0 mg/kg/injection, schedule: Q01DX009 (ip), vehicle: Klucel (hydroxypropylcellulose) (HPC)
  T/C: 98 % of control
dose: 100.0 mg/kg/injection, schedule: Q04DX003 (ip), vehicle: Klucel (hydroxypropylcellulose) (HPC)
  T/C: 98 % of control
dose: 200.0 mg/kg/injection, schedule: Q04DX003 (ip), vehicle: Klucel (hydroxypropylcellulose) (HPC)
  T/C: 96 % of control
dose: 400.0 mg/kg/injection, schedule: Q04DX003 (ip), vehicle: Klucel (hydroxypropylcellulose) (HPC)
  T/C: 96 % of control

## CN(C)CCSc1ncnc2nc[nH]c12
[4]
  T/C: 94 % of control
[7]
  T/C: 99 % of control
[6]
  T/C: 89 % of control

## Cn1c(=O)c2ccc(C(=O)O)cc2c(=O)n1C
dose: 12.5 mg/kg/injection, schedule: Q04DX003 (ip), vehicle: saline
  T/C: 97 % of control
dose: 25.0 mg/kg/injection, schedule: Q04DX003 (ip), vehicle: saline
  T/C: 98 % of control
dose: 50.0 mg/kg/injection, schedule: Q04DX003 (ip), vehicle: saline
  T/C: 103 % of control
[4]
  T/C: 106 % of control
[7]
  T/C: 92 % of control
[6]
  T/C: 98 % of control

## COC(=O)[C@@]12OC[C@]34[C@H]([C@@H](O)[C@@H]1O)[C@@]1(C)[C@H](O)C(=O)C=C(C)[C@@H]1C[C@H]3OC(=O)C(OC(C)=O)[C@@H]24 (some centres undefined)
dose: 125.0 micrograms/kg/injection, schedule: Q01DX009 (ip), vehicle: saline + alcohol
  T/C: 104 % of control
dose: 250.0 micrograms/kg/injection, schedule: Q01DX009 (ip), vehicle: saline + alcohol
  T/C: 105 % of control
dose: 500.0 micrograms/kg/injection, schedule: Q01DX009 (ip), vehicle: saline + alcohol
  T/C: 96 % of control
dose: 1000.0 micrograms/kg/injection, schedule: Q01DX009 (ip), vehicle: saline + alcohol
  T/C: 102 % of control
dose: 2000.0 micrograms/kg/injection, schedule: Q01DX009 (ip), vehicle: saline + alcohol
  T/C: 104 % of control

## O=CNc1c(Cl)c(Cl)c2c(c1Cl)Cc1cc(Cl)ccc1-2
dose: 50.0 mg/kg/injection, schedule: Q01DX001 (ip), vehicle: carboxymethylcellulose (CMC)
  T/C: 94 % of control
dose: 50.0 mg/kg/injection, schedule: Q04DX003 (ip), vehicle: acetone
  T/C: 97 % of control
dose: 75.0 mg/kg/injection, schedule: Q01DX009 (ip), vehicle: saline with Tween-80
  T/C: 108 % of control
dose: 100.0 mg/kg/injection, schedule: Q01DX001 (ip), vehicle: carboxymethylcellulose (CMC)
  T/C: 91 % of control
[1]
  T/C: 91 % of control
[3]
  T/C: 105 % of control
dose: 150.0 mg/kg/injection, schedule: Q01DX009 (ip), vehicle: saline with Tween-80
  T/C: 109 % of control
dose: 200.0 mg/kg/injection, schedule: Q01DX001 (ip), vehicle: carboxymethylcellulose (CMC)
  T/C: 102 % of control
[2]
  T/C: 91 % of control
[5]
  T/C: 94 % of control
